Reference: patent US11718614B2, “Compounds and methods for treatment of hedgehog pathway associated conditions” (Suzhou Mednes Pharma Tech Co., Ltd., priority 2018, dated 2023)

Test system: tumor cells from medulloblastoma developed from mice with deficiency in Patched1 gene
Assay: MB assay: survival of medulloblastoma tumor cells by MTT after 48 hours
Type: cell-based
Conditions: Mus musculus, tumor cells treated 48 hours, cell survival by MTT
Protocol: To test the effect of the novel compounds on the proliferation of tumor cell, we isolated tumor cells from medulloblastoma developed from mice with deficiency in Patched1 gene. Tumor cells were plated in vitro as previously described, and treated with various concentration of compounds for 48 hours. Tumor cells cultured were then harvested to measure cell survival based on MTT assay. The IC50 value for each compound was calculated using Prism the statistical software.
Table 1 below summarizes the IC50 data obtained using MB assay for exemplary compounds of the invention. IC50 values are shown as A, B, C, or D. A represents IC50 value between 1.0 μM and 5.0 μM; B is between 5.0 μM and 10 μM; C is between 10 μM to 20 μM; and D indicates greater than 20 μM.

COC(=O)C(C)(C)Cc1nc2cc(OC)ccc2n1Cc1ccccc1Cl [Compound 58]
IC50: > 20 µM
